Key:
Cytochrome P450 3A4 [1] = target: T1, Cytochrome P450 3A4 (Homo sapiens, UniProt P08684); assay: (§1) CYP Inhibition Assay (With Preincubation): With Preincubation: To a 96 deep well plate was added 2.5 uL of the test substance solution (x200 concentration), and 442.5 uL of Incubation Mixture, and the solution was mixed and warmed to 37° C. for 5 minutes. To this incubation solution 50 uL of 10 mM NADPH was added and preincubated at 37° C. for 30 minutes. […] After the reaction, 100 uL of the Incubation Mixture was removed, added to 150 uL of isopropanol containing IS and mixed. […] The filtrate was used for LC-MS/MS analysis.
T1 sequence (P08684 whole entry): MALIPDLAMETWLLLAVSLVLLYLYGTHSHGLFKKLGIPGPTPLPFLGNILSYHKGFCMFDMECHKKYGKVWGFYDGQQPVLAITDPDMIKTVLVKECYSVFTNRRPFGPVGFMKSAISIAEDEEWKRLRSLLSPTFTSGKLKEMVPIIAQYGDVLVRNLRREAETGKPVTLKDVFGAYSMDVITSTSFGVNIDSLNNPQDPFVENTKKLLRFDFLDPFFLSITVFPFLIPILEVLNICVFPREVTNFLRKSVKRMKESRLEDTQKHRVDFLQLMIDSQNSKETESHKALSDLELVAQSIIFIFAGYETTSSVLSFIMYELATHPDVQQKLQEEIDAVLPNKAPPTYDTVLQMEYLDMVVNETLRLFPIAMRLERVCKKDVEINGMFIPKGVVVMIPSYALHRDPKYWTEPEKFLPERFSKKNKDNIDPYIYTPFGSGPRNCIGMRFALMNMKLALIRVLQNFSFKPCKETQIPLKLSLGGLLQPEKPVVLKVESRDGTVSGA

Cytochrome P450 2C9 [2] = target: T2, Cytochrome P450 2C9 (Homo sapiens, UniProt P11712); assay: as §1
T2 sequence (P11712 whole entry): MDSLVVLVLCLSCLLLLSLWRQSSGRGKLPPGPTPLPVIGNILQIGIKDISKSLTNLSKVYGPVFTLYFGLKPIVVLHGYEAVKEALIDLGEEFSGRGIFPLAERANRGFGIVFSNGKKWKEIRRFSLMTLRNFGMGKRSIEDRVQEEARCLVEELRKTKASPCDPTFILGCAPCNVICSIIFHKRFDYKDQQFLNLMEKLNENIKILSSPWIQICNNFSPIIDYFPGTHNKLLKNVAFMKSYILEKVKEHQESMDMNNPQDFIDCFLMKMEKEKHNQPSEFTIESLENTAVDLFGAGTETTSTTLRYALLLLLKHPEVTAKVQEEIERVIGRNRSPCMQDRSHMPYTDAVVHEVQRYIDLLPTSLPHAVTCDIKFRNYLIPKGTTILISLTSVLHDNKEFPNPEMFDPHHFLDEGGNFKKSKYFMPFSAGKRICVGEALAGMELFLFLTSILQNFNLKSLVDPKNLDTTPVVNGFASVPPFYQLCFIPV

Cytochrome P450 3A4 [3] = target: T1, Cytochrome P450 3A4; assay: (§2) CYP Inhibition Assay (Without Preincubation): Without Preincubation: To a 96 deep well plate was added 2.5 uL, of the test substance solution (x200 concentration), 442.5 uL of Incubation Mixture, and 5 uL of the substrate solution, and the solution was mixed and warmed to 37° C. for 5 minutes. To this incubation solution 50 uL of 10 mM NADPH was added to start the reaction, and incubated at 37° C. for 5 minutes. After the incubation, 100 uL of the Incubation Mixture was removed, added to 150 uL of isopropanol containing IS and mixed. […] The filtrate was used for LC-MS/MS analysis.
Cytochrome P450 2C9 [4] = target: T2, Cytochrome P450 2C9; assay: as §2

IC50 (Cytochrome P450 3A4 [1]) [µM]	IC50 (Cytochrome P450 2C9 [2]) [µM]	IC50 (Cytochrome P450 3A4 [3]) [µM]	IC50 (Cytochrome P450 2C9 [4]) [µM]	Compound
11.9	19.6	23.8	7.7	CCCCCCCC(F)(F)CCCCCC/C=C/[C@H](C(O)N[C@@H](Cc1ccc(OCCCC)cc1)C(=O)OC)[C@@](O)(CCOC)C(=O)O (stereo partly drawn)
11.8	24.4	16.2	12.5	CCCCCCCC(F)(F)CCCCCC/C=C/[C@H](C(O)N[C@@H](Cc1ccc(OCCCC)cc1)C(=O)O)[C@@](O)(CCOC)C(=O)O (stereo partly drawn)
